Series [1] relates to CYP2C9. As to the kind of experiment: dosing recommendation per CYP2C9 metabolizer subgroup as percentage of usual population dose (Equations 4-6). Also noted: species or system human. As to conditions: for 1 al (effect of 1 non-functional allele) / 2 al (effect of 2 non-functional alleles) / 2 al/1 al: CYP2C9; for UM (%) dosing recommendation: CYP2C9, head prints UM; for UM (%) dosing recommendation / IM (%) dosing recommendation / PM (%) dosing recommendation: percent of usual dose; for 2 al/1 al: ratio of the two effects; for IM (%) dosing recommendation: CYP2C9 intermediate metabolizers; for PM (%) dosing recommendation: CYP2C9 poor metabolizers. From the text: Determining “Minimal Dose Adjustment Units”
2C9 has 2 MDA units per non-functional allele.

In series [2] the test system is CYP2D6. As to conditions: human.
The subject of series [3] is CYP2C19. As to the kind of experiment: dosing recommendation per CYP2C19 metabolizer subgroup as percentage of usual population dose (Equations 4-6). To be noted: human. From the text: Assuming the goal is to maintain the same AUC for all three subpopulations of patients, the following subpopulation dosing relationships hold: DPM=DEM*(AUCEM/AUCPM) OR DPM=DEM*R if R=(AUCEM/AUCPM) (Equation 2) DIM=DEM*(AUCEM/AUCIM) OR DIM=DEM*S if S=(AUCEM/AUCIM) (Equation 3)
By substituting equations 2 and 3 into equation 1, and then rearranging the equation to solve for the percent dose adjustment needed for each subgroup relative to the population dose: DEM(%)=100/(fEM+fIM*S+fPM*R) (Equation 4) DPM(%)=R*DEM (Equation 5) DIM(%)=S*DEM (Equation 6) Equations 4, 5, and 6 show how the dosing for the more homogeneous subgroups is determined and how the dosing results are expressed as a fraction of the clinician's usual heterogeneous whole group dosages. Determining “Minimal Dose Adjustment Units”
Example: The approach in the previous section leads to individualized initial drug dose recommendations for each of the 3 subgroups (extensive, poor and intermediate metabolizers). Each subgroup represents a specific number of functional alleles for the specific DME (extensive metabolizers have 2 functional, intermediate metabolizers have 1 functional and poor metabolizers have 0 functional). The resultant dosing recommendations are expressed as percentages of the clinician's usual starting dose. It is possible to investigate the effect of increasing numbers of non-functional alleles using these new dosing recommendations. For example, if DRX % is the dosing recommendation for subgroup X expressed as a percentage of the clinician's usual starting dose then the following are true: Effect of […] 1 non-functional allele=(DREM %−DRIM %)/DREM % Effect of 2 non-functional allele=(DREM %−DRPM %)/DREM % Below is a spreadsheet (Table 3) that examines this for CYP2D6, CYP2C19 and CYP2C9. […] 2C9 has 2 MDA units per non-functional allele.

Consider `CC(C)n1c(/C=C/[C@@H](O)C[C@@H](O)CC(=O)O)c(-c2ccc(F)cc2)c2ccccc21` (racemic) [Lescol], for which, in series [1], the “1 al (effect of 1 non-functional allele)” value is given as 0.20, the “2 al (effect of 2 non-functional alleles)” value is 0.65, the “UM (%) dosing recommendation” value is 100% and the “2 al/1 al” value came to 3.25. For the same molecule, in series [1], the “IM (%) dosing recommendation” value turned out to be 80% and the “PM (%) dosing recommendation” value is 35%.

Consider `CCC1=C(C)CN(C(=O)NCCc2ccc(S(=O)(=O)NC(=O)N[C@H]3CC[C@H](C)CC3)cc2)C1=O` [Amaryl], for which, in series [1], the “1 al (effect of 1 non-functional allele)” value is 0.42, the “2 al (effect of 2 non-functional alleles)” value is reported as 0.83, the “UM (%) dosing recommendation” value was 120% and the “2 al/1 al” value was found to be 2.00. Moreover, in series [1], the “IM (%) dosing recommendation” value is 70% and the “PM (%) dosing recommendation” value is on record as 20%.

For the molecule `Cc1ccc(-c2cc(C(F)(F)F)nn2-c2ccc(S(N)(=O)=O)cc2)cc1` [Celebrex], in series [1], the “1 al (effect of 1 non-functional allele)” value amounted to 0.30, the “2 al (effect of 2 non-functional alleles)” value turned out to be 0.65, the “UM (%) dosing recommendation” value is recorded as 100% and the “2 al/1 al” value came to 2.17. Also, in series [1], the “IM (%) dosing recommendation” value is listed as 70% and the “PM (%) dosing recommendation” value is 35%.

Consider `CC(=O)CC(c1ccccc1)c1c(O)c2ccccc2oc1=O` (stereo not shown) [Coumadin], for which, in series [1], the “1 al (effect of 1 non-functional allele)” value came to 0.62, the “2 al (effect of 2 non-functional alleles)” value was 0.85, the “UM (%) dosing recommendation” value is 130% and the “2 al/1 al” value worked out at 1.38. Besides, in series [1], the “IM (%) dosing recommendation” value worked out at 50% and the “PM (%) dosing recommendation” value was 20%.

As for `CCCCc1nc(Cl)c(CO)n1Cc1ccc(-c2ccccc2-c2nn[nH]n2)cc1` [Cozaar], in series [1], the “1 al (effect of 1 non-functional allele)” value is given as 0.50, the “2 al (effect of 2 non-functional alleles)” value is recorded as 0.80, the “UM (%) dosing recommendation” value is 100% and the “2 al/1 al” value came to 1.60. In addition, in series [1], the “IM (%) dosing recommendation” value was 50% and the “PM (%) dosing recommendation” value was determined as 20%.

`CCCNC(=O)NS(=O)(=O)c1ccc(Cl)cc1` [Diabinese]: in series [1], the “1 al (effect of 1 non-functional allele)” value was found to be 0.58, the “2 al (effect of 2 non-functional alleles)” value was 0.83, the “UM (%) dosing recommendation” value is 120% and the “2 al/1 al” value worked out at 1.43. In addition, in series [1], the “IM (%) dosing recommendation” value is on record as 60% and the “PM (%) dosing recommendation” value was 20%.

On to `O=C1NC(=O)C(c2ccccc2)(c2ccccc2)N1` [Dilantin], for which, in series [1], the “1 al (effect of 1 non-functional allele)” value turned out to be 0.36, the “2 al (effect of 2 non-functional alleles)” value came to 0.64, the “UM (%) dosing recommendation” value is 110% and the “2 al/1 al” value turned out to be 1.75. In addition, in series [1], the “IM (%) dosing recommendation” value is given as 70% and the “PM (%) dosing recommendation” value stood at 40%.

For the molecule `CN[C@H]1CC[C@@H](c2ccc(Cl)c(Cl)c2)c2ccccc21` [sertraline], in series [2], the “1 al (effect of 1 non-functional allele)” value came to 0.00, the “2 al (effect of 2 non-functional alleles)” value came to 0.01, the “EM (%) dosing recommendation” value came out at 100% and the “IM (%) dosing recommendation” value is 100%. Moreover, in series [2], the “PM (%) dosing recommendation” value stood at 99% and the “UM (%) dosing recommendation” value is reported as 100%. Moreover, in series [3], the “1 al (effect of 1 non-functional allele)” value stood at 0.14, the “2 al (effect of 2 non-functional alleles)” value came to 0.29, the “2 al/1 al” value was found to be 2.00 and the “IM (%) dosing recommendation” value was 90%. Also, in series [3], the “PM (%) dosing recommendation” value was 75% and the “UM (%) dosing recommendation” value is 105%.

On to `CC(CN(C)C)CN1c2ccccc2CCc2ccccc21` (stereo not shown) [trimipramine], for which, in series [2], the “1 al (effect of 1 non-functional allele)” value worked out at 0.31, the “2 al (effect of 2 non-functional alleles)” value came out at 0.72, the “2 al/1 al” value is recorded as 2.35 and the “EM (%) dosing recommendation” value is reported as 131%. Besides, in series [2], the “IM (%) dosing recommendation” value is 91%, the “PM (%) dosing recommendation” value was 37% and the “UM (%) dosing recommendation” value is recorded as 178%. Moreover, in series [3], the “1 al (effect of 1 non-functional allele)” value stood at 0.53, the “2 al (effect of 2 non-functional alleles)” value was 0.59, the “2 al/1 al” value was 1.12 and the “IM (%) dosing recommendation” value is on record as 62%. For the same molecule, in series [3], the “PM (%) dosing recommendation” value is 45% and the “UM (%) dosing recommendation” value was determined as 111%.

The record behind these values is US8589175B2, “Optimization and individualization of medication selection and dosing” (Children's Hospital Medical Center, priority 2005, dated 2013).
